Data reported in US20260297098A1, “HETEROCYCLIC COMPOUNDS AS PARP1 INHIBITORS” (Synnovation Therapeutics, Inc., priority 2023, published 2026).

molecular target: T1, hydrogen peroxide-induced PARylation in HeLa cells (wide-type with PARP1 gene) (Homo sapiens, UniProt P09874); experiment: In-Cell Western measurement of PARylation in PARP1 WT (HeLa) cells; assay type: cell-based; settings: 60 min compound pre-treatment, 10 mM hydrogen peroxide for 15 min, read-out: HeLa_WT_IC50
T1 construct: H2O2-induced PARylation, In-Cell Western with anti-PAR antibody
T1 sequence (P09874 whole entry): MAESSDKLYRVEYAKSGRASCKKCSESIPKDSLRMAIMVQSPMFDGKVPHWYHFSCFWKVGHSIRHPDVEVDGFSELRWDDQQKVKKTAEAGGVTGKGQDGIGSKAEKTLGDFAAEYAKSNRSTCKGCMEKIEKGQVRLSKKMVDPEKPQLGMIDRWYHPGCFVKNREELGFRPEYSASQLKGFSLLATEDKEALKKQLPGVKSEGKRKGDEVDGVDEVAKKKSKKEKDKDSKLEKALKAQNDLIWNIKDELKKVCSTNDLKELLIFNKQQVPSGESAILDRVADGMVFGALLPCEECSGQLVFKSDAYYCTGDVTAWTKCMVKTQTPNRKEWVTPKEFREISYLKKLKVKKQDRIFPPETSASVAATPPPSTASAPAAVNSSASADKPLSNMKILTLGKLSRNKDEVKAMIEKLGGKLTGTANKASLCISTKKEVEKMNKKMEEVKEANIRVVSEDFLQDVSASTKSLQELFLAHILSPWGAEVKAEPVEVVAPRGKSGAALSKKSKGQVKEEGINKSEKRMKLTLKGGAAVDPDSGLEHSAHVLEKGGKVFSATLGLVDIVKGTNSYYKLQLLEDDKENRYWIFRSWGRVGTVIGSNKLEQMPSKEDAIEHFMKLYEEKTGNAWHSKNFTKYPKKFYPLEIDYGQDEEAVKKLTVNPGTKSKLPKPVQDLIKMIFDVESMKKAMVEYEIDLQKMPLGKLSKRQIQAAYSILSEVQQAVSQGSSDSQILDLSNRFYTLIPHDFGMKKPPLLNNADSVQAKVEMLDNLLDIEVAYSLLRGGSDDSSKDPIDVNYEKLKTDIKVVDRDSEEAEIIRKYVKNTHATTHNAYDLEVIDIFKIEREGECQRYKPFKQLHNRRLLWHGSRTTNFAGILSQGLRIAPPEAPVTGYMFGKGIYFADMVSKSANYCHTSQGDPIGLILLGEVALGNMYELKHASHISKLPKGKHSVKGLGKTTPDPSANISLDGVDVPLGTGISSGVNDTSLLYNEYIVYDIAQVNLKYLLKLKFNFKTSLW
From the text: Example A. In-Cell Western Measurement of PARylation in PARP1 WT and Knockout Cells
The purpose of this cell-based assay is to measure the potency and selectivity of synthesized PARP inhibitors in suppressing hydrogen peroxide-induced PARylation in cells with and without PARP1 expression. Several cell lines were used in this assay. HeLa cells (wide-type with PARP1 gene) were purchased from ATCC. The HAP1 cell line without the PARP1 gene (#HZGHC003943c006) was purchased from Horizon Discovery. Cells were cultured using complete medium containing 10% fetal bovine serum. One day before the assay, cells were seeded in 96-well plates at the density of 20,000 cells per well in 80 uL complete medium. Compounds were dissolved using DMSO and diluted to the working concentrations using complete medium. Cells were pre-treated with compounds for 60 min and then stimulated with 10 mM hydrogen peroxide for 15 min. After stimulation, cells were immediately fixed using ice-cold methanol for 20 min. After fixation, cells were washed using 1×PBST buffer for 3 times, 5 min each time, to eliminate residual methanol. Cells were blocked for 1 h at room temperature in blocking buffer (10% goat serum, 1% BSA, 0.1% Triton X-100 in PBST). Primary antibody was diluted in blocking buffer at 50 uL per well. Cells were incubated with the primary antibody (Adipogen, AG-20T-0001-M001, 1:300) at 4° C. for 18 h. The wells were then washed using 1×PBST for 3 times, 5 min each time. IRDye® 680RD Goat anti-Mouse IgG (H+L) secondary antibody was diluted at 1/1000 using the diluent buffer and added at 50 uL per well. Secondary antibody incubation was for 1 h at room temperature. Cells were then washed using 1×PBST for 3 times, 5 min each time. The signal was detected and analyzed using LI-COR Odyssey DLx Imaging system. Data were collected and further processed using GraphPad Prism for IC50 estimation.

IC50, ≤ 10 nM:
CCN1C(=O)Nc2c(F)c(CN3CC(Oc4ccc(C(=O)NC5CC5)nc4)C3)cc3ncnc1c23 [Example 7, N-cyclopropyl-5-((1-((3-ethyl-9-fluoro-2-oxo-2,3-dihydro-1H-pyrimido[4,5,6-de]quinazolin-8-yl)methyl)azetidin-3-yl)oxy)picolinamide]
CCN1C(=O)Nc2c(F)c(CN3C[C@H](Oc4ccc(C(=O)NC5CC5)nc4)[C@H]3C)cc3ncnc1c23 [Example 8, N-cyclopropyl-5-(((2R,3S)-1-((3-ethyl-9-fluoro-2-oxo-2,3-dihydro-1H-pyrimido[4,5,6-de]quinazolin-8-yl)methyl)-2-methylazetidin-3-yl)oxy)picolinamide]
CCN1C(=O)Nc2c(F)c(CN3C[C@H](Oc4ccc(C(=O)NC)nc4)[C@H]3C)cc3ncnc1c23 [Example 2, 5-(((2R,3S)-1-((3-ethyl-9-fluoro-2-oxo-2,3-dihydro-1H-pyrimido[4,5,6-de]quinazolin-8-yl)methyl)-2-methylazetidin-3-yl)oxy)-N-methylpicolinamide]
CCN1C(=O)Nc2cc(CN3C[C@H](Oc4ccc(C(=O)NC5CC5)nc4)[C@H]3C)cc3ncnc1c23 [Example 6, N-cyclopropyl-5-(((2R,3S)-1-((3-ethyl-2-oxo-2,3-dihydro-1H-pyrimido[4,5,6-de]quinazolin-8-yl)methyl)-2-methylazetidin-3-yl)oxy)picolinamide]
CCN1C(=O)Nc2cc(CN3C[C@H](Oc4ccc(C(=O)NC)nc4C)[C@H]3C)cc3ncnc1c23 [Example 10, 5-(((2R,3S)-1-((3-ethyl-2-oxo-2,3-dihydro-1H-pyrimido[4,5,6-de]quinazolin-8-yl)methyl)-2-methylazetidin-3-yl)oxy)-N,6-dimethylpicolinamide]
CCN1C(=O)Nc2cc(CN3CC(Oc4ccc(C(=O)NC)nc4C)C3)cc3ncnc1c23 [Example 9, 5-((1-((3-Ethyl-2-oxo-2,3-dihydro-1H-pyrimido[4,5,6-de]quinazolin-8-yl)methyl)azetidin-3-yl)oxy)-N,6-dimethylpicolinamide]
CCN1C(=O)Nc2c(F)c(CN3CC(Oc4ccc(C(=O)NC)nc4)C3)cc3ncnc1c23 [Example 1, 5-((1-((3-Ethyl-9-fluoro-2-oxo-2,3-dihydro-1H-pyrimido[4,5,6-de]quinazolin-8-yl)methyl)azetidin-3-yl)oxy)-N-methylpicolinamide]
CCN1C(=O)Nc2cc(CN3C[C@H](Oc4ccc(C(=O)NC)nc4)[C@H]3C)cc3ncnc1c23 [Example 4, 5-(((2R,3S)-1-((3-ethyl-2-oxo-2,3-dihydro-1H-pyrimido[4,5,6-de]quinazolin-8-yl)methyl)-2-methylazetidin-3-yl)oxy)-N-methylpicolinamide]
CCN1C(=O)Nc2cc(CN3CC(Oc4ccc(C(=O)NC)nc4)C3)cc3ncnc1c23 [Example 3, 5-((1-((3-Ethyl-2-oxo-2,3-dihydro-1H-pyrimido[4,5,6-de]quinazolin-8-yl)methyl)azetidin-3-yl)oxy)-N-methylpicolinamide]
CCN1C(=O)Nc2cc(CN3CC(Oc4ccc(C(=O)NC5CC5)nc4)C3)cc3ncnc1c23 [Example 5, N-cyclopropyl-5-((1-((3-ethyl-2-oxo-2,3-dihydro-1H-pyrimido[4,5,6-de]quinazolin-8-yl)methyl)azetidin-3-yl)oxy)picolinamide]
